Test results reported in patent US6642392B1 (priority 1997, dated 2003).
Read-outs that look alike come from different tables or passages of the source.

Tests used:
Assay type in all cases: in vivo
[1] = tested on: Pyricularia oryzae; conditions: for Test C disease control rating (100 = 100% disease control, 0 = no disease control): rice seedlings sprayed to run-off, inoculated the following day, rating relative to controls, unmarked compounds (standard test rate); for Test C disease control rating: rice blast
[2] = tested on: Botrytis cinerea; test: Test E: gray mold, preventive spray on cucumber seedlings; conditions: for Test E disease control rating (100 = 100% disease control, 0 = no disease control): cucumber seedlings sprayed to run-off, inoculated the following day, rating relative to controls, unmarked compounds (standard test rate); for Test E disease control rating: gray mold on cucumber
How it was run: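 Preventive spray on cucumber seedlings used a suspension (3% acetone, 250 ppm Trem 014), applied to run-off one day before inoculation with Botrytis cinerea spores. Plants were held 48 h at 20° C in saturated air, then 5 days at 20° C. Percent disease control was scored relative to untreated plants.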

[3] = tested on: Phytophthora infestans; conditions: for Test D disease control rating (100 = 100% disease control, 0 = no disease control): tomato seedlings sprayed to run-off, inoculated the following day, rating relative to controls, unmarked compounds (standard test rate); for Test D disease control rating: tomato late blight
[4] = tested on: Puccinia recondita; test: Test B: wheat leaf rust, preventive spray on wheat seedlings; conditions: for Test B disease control rating (100 = 100% disease control, 0 = no disease control): wheat seedlings sprayed to run-off, inoculated the following day, rating relative to controls, unmarked compounds (standard test rate); for Test B disease control rating: wheat leaf rust
How it was run: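 Preventive test: P. recondita spores were applied one day after a run-off spray of compound suspension on wheat seedlings. Plants had 24 h at 20 °C in saturated air plus 6 days in a 20 °C growth chamber. Scoring is % disease control (100 = full) relative to controls.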

[5] = tested on: Eiysiphe graminis f. sp. tritici; test: Test A: wheat powdery mildew, preventive spray on wheat seedlings; conditions: for Test A disease control rating (100 = 100% disease control, 0 = no disease control): wheat seedlings sprayed to run-off, inoculated the following day, rating relative to controls, unmarked compounds (standard test rate); for Test A disease control rating: wheat powdery mildew
How it was run: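 Preventive test: seedlings inoculated with powdery mildew spores one day after run-off spraying of a suspension. Ratings after 7 days in a 20° C growth chamber express percent disease control versus controls.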

[6] = 100 = 100% disease control, 0 = no control, unmarked entries (standard test concentration)
[7] = 100 = 100% disease control, 0 = no control relative to controls, unmarked entries (standard test concentration)

SMILES	Test C disease control rating (100 = 100% disease control, 0 = no disease control) [1] [%]	Test E disease control rating (100 = 100% disease control, 0 = no disease control) [2] [%]	Test D disease control rating (100 = 100% disease control, 0 = no disease control) [3] [%]	Test B disease control rating (100 = 100% disease control, 0 = no disease control) [4] [%]	Test A disease control rating (100 = 100% disease control, 0 = no disease control) [5] [%]	Test C disease control rating [1, 6] [%]	Test E disease control rating [2, 6] [%]	Test D disease control rating [3, 6] [%]	Test B disease control rating [4, 6] [%]	Test A disease control rating [5, 7] [%]	also measured
C=CC(C)(CC)C(C#N)C(=O)NC(C)COc1cc(F)ccc1F (mixture of isomers) [compound 296]	100	0	24	0	0						
CCC1(C(=O)NC(C)COc2c(C)cccc2C#N)C(C)C1(Cl)Cl (mixture of isomers) [compound 259]	91	48	0	0	84						
C[C@H](COc1cccc(Cl)c1)NC(=O)C(C#N)C(C)(C)C (single isomer, unassigned) [6e]						100	70	96	0	0	
CC(COc1c(F)cccc1F)NC(=O)C(C#N)C(C)(C)C (mixture of isomers) [29b]						100	0	23	0	0	
CCC1(C(=O)NC(C)COc2c(Cl)cccc2C#N)C(C)C1(Cl)Cl (mixture of isomers) [compound 260]	74	83	24	0	0						
C=CC(C)(C)C(C#N)C(=O)N[C@H](C)COc1cc(Cl)ccc1Cl (single isomer, unassigned) [215b]	99	83	76	28	0						
CCC1(C(=O)NC(C)COc2ccc(F)c(Cl)c2)C(C)C1(Cl)Cl (stereo not drawn) [compound 232]	100	69	35	0	62						
CC(C=Cc1ccccc1F)NC(=O)C(C#N)C(C)(C)C (mixture of isomers) [compound 308]	100	0	45	28	86						
C[C@H](COc1cccc(Cl)c1)NC(=O)C(C#N)C(C)(C)C (single isomer, unassigned) [6d]						97	0	0	28	77	
CCC1(C(=O)NC(C)COc2cccc(F)c2F)C(C)C1(Cl)Cl (stereo not drawn) [compound 104]											Test C disease control rating ([1]; tested at 40 ppm): 97%; Test E disease control rating ([2]; tested at 40 ppm): 0%; Test D disease control rating ([3]; tested at 40 ppm): 0%; Test B disease control rating ([4]; tested at 40 ppm): 0%; Test A disease control rating ([5]; tested at 40 ppm): 84%
CCC1(C(=O)NC(C)COc2ccc(Cl)cc2)C(C)C1(Cl)Cl (mixture of isomers) [83a]											Test C disease control rating ([1]; tested at 40 ppm): 32%; Test E disease control rating ([2]; tested at 40 ppm): 0%; Test D disease control rating ([3]; tested at 40 ppm): 0%; Test B disease control rating ([4]; tested at 40 ppm): 0%; Test A disease control rating ([5]; tested at 40 ppm): 0%
CCCc1cccc(C#N)c1OCC(C)NC(=O)C1(CC)C(C)C1(Cl)Cl (mixture of isomers) [compound 255]	74	0	0	0	28						
CCC(C#N)C(=O)N[C@H](C)[C@H](Oc1cc(F)ccc1F)c1ccccc1 (stereo partly drawn) [compound 293]	100	0	23	0	0						
CCC1(C(=O)NC(C)COc2ccc(Br)cc2F)C(C)C1(Cl)Cl (mixture of isomers) [compound 122]						0	0	0	0	0	
CC(COc1cccc(F)c1C#N)NC(=O)C(C#N)C(C)C(C)(C)C (mixture of isomers) [compound 63]						0	0	2	0	0	
C=CC(C)(CC)C(C#N)C(=O)NC(C)COc1cc(Cl)ccc1F (mixture of isomers) [compound 297]	100	0	46	0	0						
CC(C=Cc1cc(F)ccc1F)NC(=O)C(C#N)C(C)(C)C (single isomer, unassigned) [229b]	100	95	25	0	0						
C[C@H](COc1ccc(F)c(F)c1Br)NC(=O)C(C#N)C(C)(C)C (single isomer, unassigned) [187b]						94	6	91	68	77	
C#CC(C)(C)C(C#N)C(=O)NC(C)COc1cc(Cl)ccc1Cl (mixture of isomers) [compound 212]						100	0	23	0	0	
C[C@H](COc1ccccc1F)NC(=O)C(C#N)C(C)(C)C (single isomer, unassigned) [2b]						100	0	0	0	0	
CCc1ccccc1OCC(C)NC(=O)C(C#N)C(C)(C)C (mixture of isomers) [20a]						97	0	70	0	63	
